Data taken from patent publication EP0726761B1, “MICROPARTICULAR PHARMACEUTICAL COMPOSITIONS IN MICELLAR FORM” (ISOMED, Inc., priority 1993, dated 1995).

How the values were obtained:
P388 mouse leukemia = P388 mouse leukemia model, survival time; format: in vivo; conditions: 1.25 mg/kg intraperitoneally on Study Day-1; female mice inoculated with P388 on Day-0
Description: The P388 mouse leukemia model was prepared according to the method described by Daoud and Juliano in Cancer Res. 48: 5518 (1986). Female mice were intraperitoneally inoculated with P388 mouse leukemia (1 million cells/0.1 ml) on Study Day-0. The study drugs were intraperitoneally injected on Study Day-1. […]

intestinal membranes = conditions: Tagesson et al., Gut 26:369 (1985); cited from earlier work

| Compound | MEAN SURVIVAL TIME (P388 mouse leukemia) | concentration inducing histopathological damage to intestinal membranes (intestinal membranes) |
| --- | --- | --- |
| CC[C@]1(O)C[C@H]2CN(CCc3c([nH]c4ccccc34)[C@@](C(=O)OC)(c3cc4c(cc3OC)N(C=O)[C@H]3[C@@](O)(C(=O)OC)[C@H](OC(C)=O)[C@]5(CC)C=CCN6CC[C@]43[C@@H]65)C2)C1 [Vincristin, vincristin] | 21.2 days | – |
| sn-1-acyl-3-glycerophosphorylcholine [lyso-PC] | – | 0.01-1 mM |
